The subject of test [1] is MCF7. As to the kind of experiment: Cytotoxicity against human MCF7 cells assessed as reduction in cell viability at <90 uM after 48 hrs. The format is functional, cell-based. The conditions noted are these: dose microM <90, time 48.0 hrs.
Test [2] relates to MDA-MB-231. As to the kind of experiment: Cytotoxicity against human MDA-MB-231 cells assessed as reduction in cell viability at >90 uM after 48 hrs. The format is functional, cell-based. The conditions noted are these: dose microM >90, time 48.0 hrs.
In test [3] the test system is MCF7. As to the kind of experiment: Cytotoxicity against human MCF7 cells assessed as reduction in cell viability after 48 hrs. The format is functional, cell-based.
Test [4] concerns the target Human immunodeficiency virus type 1 protease (Human immunodeficiency virus 1) (UniProt Q72874). As to the kind of experiment: Inhibition of HIV-1 protease at >100 uM after 1 hr by fluorescence assay. The note with it: dose microM >100, time 1.0 hrs.
Test [5] has the same target. As to the kind of experiment: Inhibition of HIV-1 protease at <60 uM after 1 hr by fluorescence assay. The conditions noted are these: dose microM <60, time 1.0 hrs.
Test [6] has as its system MDA-MB-231. As to the kind of experiment: Cytotoxicity against human MDA-MB-231 cells assessed as reduction in cell viability after 48 hrs. The format is functional, cell-based.

This passage reports Activity and inhibition results from ChEMBL document CHEMBL4665745, “Bioactive Lignans from Hypoestes aristata” (J Nat Prod, 2020).

Calls of active or inactive are those of the source. No cut-off for these calls is given here.

Take `CC(=O)N[C@H](C(=O)N[C@H](C(=O)N[C@@H](CC(C)C)[C@@H](O)CC(=O)N[C@@H](C)C(=O)N[C@@H](CC(C)C)[C@@H](O)CC(=O)O)C(C)C)C(C)C`: the outcome in test [1] and in test [2] was inactive.
Turning to `CC(=O)O[C@H](c1ccc2c(c1)OCO2)[C@H]1COC(=O)[C@@H]1[C@H](OC(C)=O)c1ccc2c(c1)OCO2`, the outcome in test [3] and in test [6] was Active. In addition, the inhibition result in test [4] and in test [5] was “Active” in each case. Moreover, the outcome in test [1] and in test [2] was inactive.
In the case of `O=C1OC[C@H](Cc2ccc3c(c2)OCO3)[C@H]1Cc1ccc2c(c1)OCO2`, the inhibition entry in test [4] and in test [5] was “Active” throughout.
Consider `COc1cc([C@H]2OC[C@H]3[C@@H]2CO[C@@H]3c2cc(OC)c(O)c(OC)c2)ccc1O`, for which the inhibition result in test [4] is “Active”.
As to `CC(=O)O[C@@H](c1ccc2c(c1)OCO2)[C@H]1COC(O)[C@@H]1[C@@H](OC(C)=O)c1ccc2c(c1)OCO2` (stereo partly specified), the outcome in test [3] and in test [6] was Active. In test [4], the inhibition result is “Active”. Moreover, the result in test [1] and in test [2] was inactive.
As for `CC(=O)O[C@H](c1ccc2c(c1)OCO2)[C@H]1COC(=O)[C@@H]1[C@H](O)c1ccc2c(c1)OCO2`, the outcome in test [3] and in test [6] was Active. The inhibition result in test [4] was “Active”. For the same molecule, the outcome in test [1] and in test [2] was inactive.
